In ChEMBL document CHEMBL4725320 (Bioorg Med Chem Lett, 2020):

Molecular target: Nuclear receptor subfamily 1 group D member 2 (Homo sapiens) (UniProt Q14995)
Assay: Antagonist activity at Rev-Erb beta (unknown origin) by RORE-luciferase reporter assay

Sequence of Nuclear receptor subfamily 1 group D member 2 (Homo sapiens) (Q14995 whole entry, looked up): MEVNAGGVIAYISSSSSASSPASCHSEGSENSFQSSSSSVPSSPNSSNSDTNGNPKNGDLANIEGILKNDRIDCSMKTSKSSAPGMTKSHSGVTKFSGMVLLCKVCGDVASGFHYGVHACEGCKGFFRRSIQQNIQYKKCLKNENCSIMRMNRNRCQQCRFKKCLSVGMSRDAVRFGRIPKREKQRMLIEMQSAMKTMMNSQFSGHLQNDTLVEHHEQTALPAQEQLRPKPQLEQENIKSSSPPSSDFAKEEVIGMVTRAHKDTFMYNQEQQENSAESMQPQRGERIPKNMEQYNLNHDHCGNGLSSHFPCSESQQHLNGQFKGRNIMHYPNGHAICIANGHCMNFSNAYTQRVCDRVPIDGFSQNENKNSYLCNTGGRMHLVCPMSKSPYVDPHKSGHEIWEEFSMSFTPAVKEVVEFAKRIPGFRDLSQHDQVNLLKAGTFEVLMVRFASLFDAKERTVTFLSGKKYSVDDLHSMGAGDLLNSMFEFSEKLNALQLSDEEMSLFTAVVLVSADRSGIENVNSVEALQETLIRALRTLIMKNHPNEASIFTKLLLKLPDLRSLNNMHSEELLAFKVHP

Compound | EC50 [nM]
CN1CCN(Cc2cc(CNC3(c4ccccc4F)CCCC3)ccc2O)CC1 | 30000

Molecular target: T1, Nuclear receptor subfamily 1 group D member 1 (Homo sapiens, UniProt P20393)
T1 sequence (P20393 whole entry): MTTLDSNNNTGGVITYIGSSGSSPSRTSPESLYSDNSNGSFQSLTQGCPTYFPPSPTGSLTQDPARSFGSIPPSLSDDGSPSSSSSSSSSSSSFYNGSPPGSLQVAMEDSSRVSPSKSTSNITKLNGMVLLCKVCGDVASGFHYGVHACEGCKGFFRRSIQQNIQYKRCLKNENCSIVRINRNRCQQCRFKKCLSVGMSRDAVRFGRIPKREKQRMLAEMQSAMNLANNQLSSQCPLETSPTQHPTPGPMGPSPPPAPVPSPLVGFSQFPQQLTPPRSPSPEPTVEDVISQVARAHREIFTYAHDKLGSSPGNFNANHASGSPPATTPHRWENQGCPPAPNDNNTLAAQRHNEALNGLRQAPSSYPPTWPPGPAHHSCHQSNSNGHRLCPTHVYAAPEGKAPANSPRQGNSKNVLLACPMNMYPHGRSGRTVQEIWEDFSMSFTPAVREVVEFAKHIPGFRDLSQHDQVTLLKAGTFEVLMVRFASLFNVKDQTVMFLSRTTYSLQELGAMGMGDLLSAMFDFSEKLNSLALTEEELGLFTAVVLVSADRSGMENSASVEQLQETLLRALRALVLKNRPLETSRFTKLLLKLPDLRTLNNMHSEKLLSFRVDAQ
Assay: Agonist activity at Rev-Erb alpha (unknown origin) by BMAL1-luciferase reporter assay

Compound | EC50 [nM]
O=C(c1cccc2ccccc12)N1Cc2ccccc2CC1CNCc1ccccc1 (stereo not given) | 3000

Molecular target: T1, Nuclear receptor subfamily 1 group D member 1
Assay: Antagonist activity at Rev-Erb alpha (unknown origin) by BMAL1-luciferase reporter assay

Compound | EC50 [nM]
O=C(Nc1ccccc1)N1CCC(CN(Cc2ccc(Cl)cc2)Cc2ccc([N+](=O)[O-])s2)CC1 | 1300
CCOC(=O)C1Cc2ccccc2CN1C(=O)c1ccc(SC)s1 (stereo not given) | 470
Cc1cc(Cl)cc(CN(Cc2ccc(Cl)cc2)Cc2ccc([N+](=O)[O-])s2)c1 | 2050
CCOC(=O)C1Cc2ccccc2CN1C(=O)c1ccc(C)o1 (stereo not given) | 1300

Molecular target: T1, Nuclear receptor subfamily 1 group D member 1
Assay: Agonist activity at Rev-Erb alpha (unknown origin) by FRET assay
Format: single protein

Compound | EC50 [nM]
FC(F)(F)c1ccc(-c2cncnc2)c(Oc2ccc3nnc(Cl)n3n2)c1 | < 5000
Cc1cc(F)ccc1-c1ccc(C(F)(F)F)cc1Oc1nn(C)c(=O)c2ccsc12 | 1130
FC(F)(F)c1ccc(-c2ccc3ncc(Cl)n3c2)c(Oc2nn3ccnc3c3ccsc23)c1 | 5510
FC(F)(F)c1ccc(-c2cccnc2)c(Oc2ccc3nnc(Cl)n3n2)c1 | < 1000
Cc1cc(Cl)cc(CN(Cc2ccc(Cl)cc2)Cc2ccc([N+](=O)[O-])s2)c1 | 50
CC(C)(C)Oc1ccc(OC[C@@H]2Cc3cc(F)ccc3CN2C(=O)c2cccc3ccccc23)cc1 | 68
Cn1nc(Oc2cc(C(F)(F)F)ccc2-c2ccsc2Cl)c2sccc2c1=O | 520
CCCCCNC(=O)N1CCC(CN(Cc2ccc(Cl)cc2)Cc2ccc([N+](=O)[O-])s2)C1 (stereo not given) [SR9011] | 710

Molecular target: T1, Nuclear receptor subfamily 1 group D member 1
Assay: Inverse agonist activity at Rev-Erb alpha LBD (unknown origin) by FRET assay

Compound | EC50 [nM]
COCCNc1oc(-c2ccc(N(C)Cc3ccc(Cl)cc3)cc2)nc1C#N | 150
